# Where a chain is given by its changes, count along the chain named. Read-outs that look alike come from different tables or passages of the source.
# How the values were obtained:
# total cellular AR = assay: CETSA HT control without heat shock and without exogenous DHT (total AR); format: cell-based, human
# Androgen Receptor (AR) [1] = biological target: T1, Androgen Receptor (AR) (Homo sapiens, UniProt P10275, H875Y); assay: CETSA HT ITDRF at 46 °C, antagonist mode in the presence of 1 nM DHT, CWR22Pc-R1-AD1 cells; format: binding; conditions: for AR target engagement (CETSA HT), 2 h, IC50: CWR22Pc-R1-AD1 cells
# T1 construct: exclusively expresses a structurally full-length AR containing a H874Y mutation; endogenous in cells; host or cells: CWR22Pc-R1-AD1
# T1 sequence (P10275 1-920 H875Y): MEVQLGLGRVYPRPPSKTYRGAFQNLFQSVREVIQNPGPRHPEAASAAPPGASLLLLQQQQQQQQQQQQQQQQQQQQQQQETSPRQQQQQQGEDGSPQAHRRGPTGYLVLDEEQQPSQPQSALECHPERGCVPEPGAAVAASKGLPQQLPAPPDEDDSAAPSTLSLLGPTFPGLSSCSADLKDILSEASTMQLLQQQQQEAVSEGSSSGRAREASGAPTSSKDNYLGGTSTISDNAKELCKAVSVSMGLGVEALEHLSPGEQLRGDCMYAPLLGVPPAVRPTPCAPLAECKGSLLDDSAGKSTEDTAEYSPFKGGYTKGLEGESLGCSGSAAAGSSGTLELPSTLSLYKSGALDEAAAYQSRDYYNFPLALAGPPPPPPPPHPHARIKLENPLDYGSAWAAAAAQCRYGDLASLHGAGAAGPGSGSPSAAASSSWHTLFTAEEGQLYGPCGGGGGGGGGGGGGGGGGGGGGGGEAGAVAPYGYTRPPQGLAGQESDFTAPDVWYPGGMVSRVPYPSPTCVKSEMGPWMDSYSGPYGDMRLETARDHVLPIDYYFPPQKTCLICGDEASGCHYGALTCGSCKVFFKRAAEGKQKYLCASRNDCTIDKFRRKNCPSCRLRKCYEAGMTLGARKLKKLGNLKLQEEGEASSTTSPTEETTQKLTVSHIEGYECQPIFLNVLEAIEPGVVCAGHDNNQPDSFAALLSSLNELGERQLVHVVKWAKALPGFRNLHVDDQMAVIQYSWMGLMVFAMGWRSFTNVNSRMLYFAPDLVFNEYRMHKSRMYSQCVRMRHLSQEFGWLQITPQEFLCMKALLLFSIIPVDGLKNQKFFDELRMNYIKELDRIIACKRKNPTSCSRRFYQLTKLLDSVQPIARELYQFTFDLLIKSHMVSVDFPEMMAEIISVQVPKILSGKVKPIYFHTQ
# Description: [sequence] experiments were performed in a plate-based, automation-compatible assay setup, as described in Supplementary Fig. S2e. […] Internal standard controls were included on each plate (Supplementary Fig. S10). […] 10 µL of cells were seeded per well of the PCR plate using a Multidrop Combi dispensor, covered with a plate lid, briefly centrifuged, and incubated under standard tissue culture conditions for 2 h or indicated timepoint. […] Cells were lysed by addition of 10 µL/well 2x SureFire Lysis Buffer using a Multidrop Combi. […] Antibody and AlphaScreen reagent, prepared as above, were added by Multidrop Combi (6 µL/well). Plates were incubated in the dark 16 h and analysed using an EnVision platereader.
# [2] = test system: AR-driven transcription (ARE-Luciferase); assay: AR-driven transcription ARE Luciferase reporter assay in CWR22Pc-R1-AD1 cells; format: cell-based, human;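 note: cells stably carrying an ARE-driven firefly luciferase reporter, with luminescence as read-out, tested in phenol red free RPMI containing 10% charcoal stripped FBS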
# Description: 15 µL 2x Steady-Glo® reagent (Promega) was added per well and incubated 15 min in the dark before reading luminescence using an EnVision platereader. Experiments were performed in phenol red free RPMI media supplemented with 10% charcoal stripped FBS.
# Androgen Receptor (AR) [3] = biological target: T1, Androgen Receptor (AR); assay: CETSA HT ITDRF at 46 °C, agonist mode (no exogenous DHT), CWR22Pc-R1-AD1 cells; format: binding; conditions: for compound incubation time at which AR thermal stabilisation is seen: time-course
# Androgen Receptor (AR) [4] = biological target: T2, Androgen Receptor (AR) (Homo sapiens, UniProt P10275, T878A); assay: CETSA HT ITDRF at 46 °C, agonist mode, LNCaP cells; format: binding
# T2 construct: an alternative AR-positive prostate cancer cell line, LNCaP; endogenous in cells; host or cells: LNCaP
# T2 sequence (P10275 1-920 T878A): T1 sequence (P10275 1-920 H875Y) with Y875H, T878A
# [5] = 2 h compound incubation, no exogenous DHT, no 46 °C heat shock
# [6] = 1 nM DHT, 2 h, 46 °C heat shock
# [7] = Supplementary Table S1, 1 nM DHT, 2 h, 46 °C, one technical repeat, read-out: CETSA HT response pIC50 (converted)
# [8] = Supplementary Table S1, 2 h, 46 °C
# [9] = Homo sapiens, 24 h; read-out: AR-driven transcription (ARE-Luciferase), 24 h, IC50
# [10] = Homo sapiens, 24 h; read-out: ARE-Luciferase response pIC50 (converted)
# [11] = Supplementary Table S1; 24 h, 1 nM DHT
# [12] = AR target engagement (CETSA HT), 2 h, IC50, CWR22Pc-R1-AD1 cells, 1 nM DHT, 46 °C heat shock
# [13] = CWR22Pc-R1-AD1 cells, 1 nM DHT, 24 h; read-out: AR-driven transcription (ARE-Luciferase), 24 h, IC50
SMILES,Conclusion: activity in CETSA HT (Androgen Receptor (AR) [1]; [8]),"IC50 [2, 9] [nM]","IC50 [2, 10] [nM]","Conclusion: activity in ARE-Luciferase assay [2, 11]",IC50 (Androgen Receptor (AR) [1]; [12]) [nM],further results
CCNC(=O)c1noc(-c2cc(C(C)C)c(O)cc2O)c1-c1ccc(CN2CCOCC2)cc1 [NVP-AUY-922],Active,89,89.1,Active,–,"effect on total AR (no heat shock) (total cellular AR; [5]): reduces total AR; AR target engagement (CETSA HT), 2 h, IC50 (Androgen Receptor (AR) [1]; [6]): Reduces total AR; IC50 (Androgen Receptor (AR) [1]; [7]): 955 nM"
CCN(c1cc(-c2ccc(CN3CCOCC3)cc2)cc(C(=O)NCc2c(C)cc(C)[nH]c2=O)c1C)C1CCOCC1 [EPZ-6438],Inactive,–,–,Inactive,> 30000,–
Cc1sc2c(c1C)C(c1ccc(Cl)cc1)=N[C@@H](CC(=O)Nc1ccc(O)cc1)c1nnc(C)n1-2 [OTX-015],Inactive,214,214,Partial,> 30000,–
CC(C)(O)C(=O)Nc1ccc([N+](=O)[O-])c(C(F)(F)F)c1 [Hydroxyflutamide],Active,135,135,Active,–,"effect on total AR (no heat shock) (total cellular AR; [5]): do not reduce total AR; AR thermal stabilisation in time-course of compound incubation (Androgen Receptor (AR) [3]; 10 minutes up to 6 hours incubation): No thermal; AR thermal stabilisation / target engagement by compound alone (Androgen Receptor (AR) [3]; no exogenous agonist): did not thermally stabilise AR; temporal analysis of target engagement (competition of DHT) (Androgen Receptor (AR) [1]; 1 nM DHT, incubation 10 minutes – 6 hours): increasing competition of DHT from AR over time; AR thermal stabilisation / agonist binding mode by compound alone (Androgen Receptor (AR) [4]; LNCaP cells (AR T877A)): did not show any evidence of binding as an agonist"
C[C@]12CC[C@H](O)CC1=CC[C@@H]1[C@@H]2CC[C@]2(C)C(c3cccnc3)=CC[C@@H]12 [Abiraterone],Inactive,> 30000,–,Inactive,> 30000,–
Cc1cc(-c2ncc(CC(=O)Nc3ccc(-c4cnccn4)cn3)cc2C)ccn1 [WNT-974],Inactive,> 30000,–,Inactive,> 30000,–
Oc1nc(-c2ccc(C(F)(F)F)cc2)nc2c1CSCC2 [XAV-939],Inactive,> 30000,–,Inactive,> 30000,–
Cc1sc2c(c1C)C(c1ccc(Cl)cc1)=N[C@@H](CC(=O)OC(C)(C)C)c1nnc(C)n1-2 [JQ1],–,–,–,Partial,–,"IC50 [2, 13]: 302 nM"
CC[C@H](C)n1cc(C)c2c(C(=O)NCc3c(C)cc(C)[nH]c3=O)cc(-c3ccc(N4CCNCC4)nc3)cc21 [GSK-126],–,–,–,Inactive,–,"IC50 [2, 13]: > 30000 nM"
CO[C@@H](C(=O)N1Cc2n[nH]c(NC(=O)c3ccc(N4CCN(C)CC4)cc3)c2C1)c1ccccc1 [Danusertib],Inactive,2600,2570,Active,> 30000,–
CC(C)c1cc(C(=O)N2Cc3ccc(CN4CCN(C)CC4)cc3C2)c(O)cc1O [Onalespib],Active,537,537,Active,–,"effect on total AR (no heat shock) (total cellular AR; [5]): reduces total AR; AR target engagement (CETSA HT), 2 h, IC50 (Androgen Receptor (AR) [1]; [6]): Reduces total AR; IC50 (Androgen Receptor (AR) [1]; [7]): 1050 nM"
CO[C@H]1CNC[C@@H](OCC2CCC(F)(F)CC2)[C@@H]1Nc1ncc(-c2cncc(C)c2)c2cc(C)c(=O)[nH]c12 [GSK8814],Inactive,> 30000,–,Inactive,> 30000,–
O=C(Nc1ccc([N+](=O)[O-])cc1Cl)c1cc(Cl)ccc1O [Niclosamide],–,955,955,Active,–,–
C[C@](O)(COc1ccc(C#N)cc1)C(=O)Nc1ccc(C#N)c(C(F)(F)F)c1 [MK-2866],–,–,–,–,–,"effect on total AR (no heat shock) (total cellular AR): do not reduce total AR; Conclusion: activity in CETSA HT (Androgen Receptor (AR) [1]): Active; temporal analysis of target engagement (competition of DHT) (Androgen Receptor (AR) [1]): increasing competition of DHT from AR over time; IC50 ([2]; Homo sapiens, 24 h, read-out: AR-driven transcription (ARE-Luciferase), 24 h, IC50): 170 nM; IC50 ([2]; Homo sapiens, 24 h, read-out: ARE-Luciferase response pIC50 (converted)): 170 nM"
CS(=O)(=O)c1ccc(-c2cnc(NCc3ccco3)n3cnnc23)cc1 [EED-226],Inactive,> 30000,–,Inactive,> 30000,–
COc1ccc(/C=C/C(=O)/C=C(O)/C=C/c2ccc(OC)c(OC)c2)cc1OC [ACS-J9],–,–,–,Active,–,"IC50 [2, 13]: > 10000 nM"
CN1CCN(c2ccc(C(=O)Nc3n[nH]c4ccc(Cc5cc(F)cc(F)c5)cc34)c(NC3CCOCC3)c2)CC1 [Entrectinib],Inactive,11200,11200,Active,> 30000,effect on total AR (no heat shock) (total cellular AR; [5]): do not reduce total AR
O=C(O)c1ccc(CN2CCC(CN[C@@H]3C[C@H]3c3ccccc3)CC2)cc1 [GSK2879522],–,–,–,Inactive,–,"IC50 [2, 13]: > 30000 nM"
C[C@]12CCC(=O)C=C1CC[C@@H]1[C@@H]2C(=O)C[C@]2(C)C(=O)CC[C@@H]12 [Andrenosterone],–,–,–,–,–,"EC50 (Androgen Receptor (AR) [3]; agonist alone, read-out: EC50 for in-cell AR target engagement (ITDRF CETSA)): 50.6 nM; compound incubation time at which AR thermal stabilisation is seen (Androgen Receptor (AR) [3]): at least 30 minutes; compound incubation time at which AR thermal stabilisation is seen (Androgen Receptor (AR) [3]; listed as andrenosterone): 30 min; EC50 (Androgen Receptor (AR) [4]; read-out: EC50 for AR thermal stabilisation (ITDRF CETSA), LNCaP cells, agonist alone): 70.1 nM"
CN(C)[C@H]1CN(C2CCc3cccc(F)c32)C[C@@H]1c1ccc(N2CCN(S(C)(=O)=O)CC2)cc1 (stereo partly drawn) [A-395],–,–,–,Inactive,–,"IC50 [2, 13]: > 30000 nM"
C=CCNC1=C2C[C@@H](C)C[C@H](OC)[C@H](O)[C@@H](C)/C=C(\C)[C@H](OC(N)=O)[C@@H](OC)/C=C\C=C(/C)C(=O)NC(=CC1=O)C2=O [Tanespimycin],–,3200,3240,Active,–,–
